ChEMBL document CHEMBL4316654, “Prenylated Acylphloroglucinols from Hypericum faberi” (J Nat Prod, 2019)

Key:
Type in all cases: functional, cell-based
PANC-1 = experiment: Cytotoxicity against human PANC1 cells incubated for 48 hrs by MTT assay; conditions: PANC-1, 48 h
ECa-109 cell line = experiment: Cytotoxicity against human ECA109 cells incubated for 48 hrs by MTT assay; conditions: ECa-109, 48 h
[1] = Cytotoxicity against human BIU87 cells incubated for 48 hrs by MTT assay; conditions: BIU87, 48 h

Row | Structure (SMILES) | IC50 (PANC-1) [µM] | IC50 (ECa-109 cell line) [µM] | IC50 [1] [µM]
1 | CC(C)=CCC/C(C)=C/Cc1c(O)c(C(=O)C(C)C)c2oc(-c3ccc(O)cc3)cc2c1O | 9 |  | 
2 | CC(=O)O[C@H]1C(=O)[C@@]2(C)[C@H]([C@H](OC(=O)c3ccccc3)[C@]3(O)C[C@H](OC(=O)[C@H](O)[C@@H](NC(=O)c4ccccc4)c4ccccc4)C(C)=C1C3(C)C)[C@]1(OC(C)=O)CO[C@@H]1C[C@@H]2O [PACLITAXEL] | 3.5 | 1.2 | 2.1
3 | CCC(C)C(=O)c1c(O)c(C/C=C(\C)CCC=C(C)C)c(O)c2cc(-c3ccccc3)oc12 (stereo not given) | 6.2 |  | 
